Values joined by “and” are separate entries in the source; they are usually repeats but may differ in a detail not shown here. Identical values can stand only once.

The text below walks through data of patent US20240174662A1, “SMALL MOLECULE INHIBITORS OF SALT INDUCIBLE KINASES” (Janssen Biotech, Inc., priority 2021, published 2024).

SIK2, sequence (Q9H0K1 whole entry, species assumed): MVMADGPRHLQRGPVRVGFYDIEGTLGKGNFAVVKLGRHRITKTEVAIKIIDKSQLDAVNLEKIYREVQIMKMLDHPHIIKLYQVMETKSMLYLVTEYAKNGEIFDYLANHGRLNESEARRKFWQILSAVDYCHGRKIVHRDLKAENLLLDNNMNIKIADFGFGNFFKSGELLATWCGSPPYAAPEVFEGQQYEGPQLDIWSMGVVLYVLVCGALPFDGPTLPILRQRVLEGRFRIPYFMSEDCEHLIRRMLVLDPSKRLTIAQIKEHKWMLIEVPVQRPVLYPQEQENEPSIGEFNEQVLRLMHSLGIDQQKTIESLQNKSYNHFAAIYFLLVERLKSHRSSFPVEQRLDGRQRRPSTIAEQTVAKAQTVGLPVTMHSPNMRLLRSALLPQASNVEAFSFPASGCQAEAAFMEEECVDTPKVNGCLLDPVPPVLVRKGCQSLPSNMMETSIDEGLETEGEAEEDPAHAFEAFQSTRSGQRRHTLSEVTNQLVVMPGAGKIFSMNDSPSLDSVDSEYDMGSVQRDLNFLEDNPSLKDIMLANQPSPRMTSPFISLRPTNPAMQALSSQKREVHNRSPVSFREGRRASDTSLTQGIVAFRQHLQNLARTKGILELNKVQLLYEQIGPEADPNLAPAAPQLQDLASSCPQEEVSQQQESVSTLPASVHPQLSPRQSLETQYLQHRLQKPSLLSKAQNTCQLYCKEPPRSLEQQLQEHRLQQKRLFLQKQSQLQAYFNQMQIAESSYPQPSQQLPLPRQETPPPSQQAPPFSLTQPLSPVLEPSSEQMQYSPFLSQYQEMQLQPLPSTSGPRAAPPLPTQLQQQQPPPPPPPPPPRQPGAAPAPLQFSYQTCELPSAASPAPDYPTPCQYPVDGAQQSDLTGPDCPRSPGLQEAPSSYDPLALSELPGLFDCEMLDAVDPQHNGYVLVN

This experiment addresses SIK2 (Homo sapiens (Human), UniProt Q9H0K1). The experiment can be described thus: SIK2 Enzymatic Assay Version 2 (High ATP). Format: biochemical. To be noted: 3 mM ATP and 200 μM HDAC5tide final, ADP-Glo Max luminescence. The method, boiled down:
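Luminescent ADP-Glo Max read-out: depletion reagent 2 h, then detection reagent 1 h. Before the reaction, compounds were incubated 30 min with enzyme added at 6 nM (twice final concentration), with all steps at room temperature.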
(In general: ADP-Glo turns the ADP formed in a reaction into a luminescent signal.)
In the case of `Cc1onc(OC[C@H]2COCCN2)c1-c1ccn2nc(NC(=O)C3CC3)cc2c1` [Example 496, N-[5-[5-methyl-3-[[(3R)-morpholin-3-yl]methoxy]isoxazol-4-yl]pyrazolo[1,5-a]pyridin-2-yl]cyclopropanecarboxamide], inhibition was half-maximal at 995 nM (IC50).
To `Cc1cc(C)c(Nc2cc3cc(-c4c(OC[C@H]5CCN5C)cnn4C)ccn3n2)nn1` [Example 61, N-(4,6-dimethylpyridazin-3-yl)-5-[2-methyl-4-[[(2R)-1-methylazetidin-2-yl]methoxy]pyrazol-3-yl]pyrazolo[1,5-a]pyridin-2-amine] belongs 1140 nM.
To `Cc1cc(Nc2cc3cc(-c4c(O[C@@H]5CCN[C@H]5C)cnn4C)ccn3n2)nc(C)n1` [Example 298, N-(2,6-dimethylpyrimidin-4-yl)-5-[2-methyl-4-[(2S,3R)-2-methylpyrrolidin-3-yl]oxy-pyrazol-3-yl]pyrazolo[1,5-a]pyridin-2-amine] belongs 39.2 nM; to `CCN1CC[C@@H]1COc1cnn(C)c1-c1ccn2nc(Nc3ccc(C)nn3)cc2c1` [Example 68, 5-[4-[[(2R)-1-ethylazetidin-2-yl]methoxy]-2-methyl-pyrazol-3-yl]-N-(6-methylpyridazin-3-yl)pyrazolo[1,5-a]pyridin-2-amine], under 0.847 nM; to `CCN1CC[C@@H]1COc1cnn(C)c1-c1ccn2nc(Nc3ccnc(C)n3)cc2c1` [Example 65, 5-[4-[[(2R)-1-ethylazetidin-2-yl]methoxy]-2-methyl-pyrazol-3-yl]-N-(2-methylpyrimidin-4-yl)pyrazolo[1,5-a]pyridin-2-amine], under 0.847 nM.
To `CO[C@@H]1CN(C)C[C@@H]1Oc1noc(C)c1-c1ccn2nc(NC(=O)C3CC3)cc2c1` (relative stereo) [Example 317, *S, *R—N-[5-[3-(4-methoxy-1-methyl-pyrrolidin-3-yl)oxy-5-methyl-isoxazol-4-yl]pyrazolo[1,5-a]pyridin-2-yl]cyclopropanecarboxamide] belongs 67.8 nM.
For the molecule `Cc1cnc(Nc2cc3cc(-c4c(O[C@@H]5CN[C@H](C)C5)noc4C)ccn3n2)cn1` [Example 322, 5-[5-methyl-3-[(3S,5R)-5-methylpyrrolidin-3-yl]oxy-isoxazol-4-yl]-N-(5-methylpyrazin-2-yl)pyrazolo[1,5-a]pyridin-2-amine], the IC50 (usually the concentration needed to halve the response being measured) was 46.3 nM.
In turn, `CCN1CC[C@H]1COc1cnn(C)c1-c1ccn2nc(NC(=O)C3CC3)cc2c1` [Example 47, N-[5-[4-[[(2S)-1-ethylazetidin-2-yl]methoxy]-2-methyl-pyrazol-3-yl]pyrazolo[1,5-a]pyridin-2-yl]cyclopropanecarboxamide] gave an IC50 of 87.7 nM.
To `Cc1nc(C)c(C)c(Nc2cc3cc(-c4c(OC[C@H]5CCN5C)cnn4C)ccn3n2)n1` [Example 57, 5-[2-methyl-4-[[(2R)-1-methylazetidin-2-yl]methoxy]pyrazol-3-yl]-N-(2,5,6-trimethylpyrimidin-4-yl)pyrazolo[1,5-a]pyridin-2-amine] belongs 471 nM; to `Cn1ncc(OC2CNC2)c1-c1ccn2nc(NC(=O)C3CC3)cc2c1` [Example 397, N-[5-[4-(azetidin-3-yloxy)-2-methyl-pyrazol-3-yl]pyrazolo[1,5-a]pyridin-2-yl]cyclopropanecarboxamide], 128 nM.
To `CN1CC[C@H](Oc2cnn(C)c2-c2ccn3nc(Nc4cnc5ccccc5n4)cc3c2)C1` [Example 343, N-[5-[2-methyl-4-[(3S)-1-methylpyrrolidin-3-yl]oxy-pyrazol-3-yl]pyrazolo[1,5-a]pyridin-2-yl]quinoxalin-2-amine] belongs 54.8 nM; to `Cc1nc(Nc2cc3cc(-c4c(OC[C@H]5CCN5C)cnn4C)ccn3n2)cc(C(F)(F)F)n1` [Example 122, 5-[2-methyl-4-[[(2R)-1-methylazetidin-2-yl]methoxy]pyrazol-3-yl]-N-[2-methyl-6-(trifluoromethyl)pyrimidin-4-yl]pyrazolo[1,5-a]pyridin-2-amine], 3.6 nM.
To `Cc1cc(Nc2cc3cc(-c4c(OC[C@H]5CCN5C)cnn4C)ccn3n2)nc(NC2CCCC2)n1` [Example 129, N2-cyclopentyl-6-methyl-N4-[5-[2-methyl-4-[[(2R)-1-methylazetidin-2-yl]methoxy]pyrazol-3-yl]pyrazolo[1,5-a]pyridin-2-yl]pyrimidine-2,4-diamine] belongs under 0.847 nM.
As for `Cn1ncc(OCC2(c3ccccc3)CNC2)c1-c1ccn2nc(NC(=O)C3CC3)cc2c1` [Example 44, N-[5-[2-methyl-4-[(3-phenylazetidin-3-yl)methoxy]pyrazol-3-yl]pyrazolo[1,5-a]pyridin-2-yl]cyclopropanecarboxamide], 17.6 nM corresponded to half-maximal inhibition (IC50).
Molecule `Cc1cc(Nc2cc3cc(-c4c(OC[C@H]5CCN5C)cnn4C)ccn3n2)nc(C2CC2)n1` [Example 144, N-(2-cyclopropyl-6-methyl-pyrimidin-4-yl)-5-[2-methyl-4-[[(2R)-1-methylazetidin-2-yl]methoxy]pyrazol-3-yl]pyrazolo[1,5-a]pyridin-2-amine] displayed a half-maximal inhibitory concentration (IC50) of under 0.847 nM.
To `Cn1ncc(OC[C@@H]2CNC[C@H]2O)c1-c1ccn2nc(NC(=O)C3CC3)cc2c1` [Example 416, N-[5-[4-[[(3S,4S)-4-hydroxypyrrolidin-3-yl]methoxy]-2-methyl-pyrazol-3-yl]pyrazolo[1,5-a]pyridin-2-yl]cyclopropanecarboxamide] belongs 73.6 nM.
To `CN1CC[C@@H]1COc1cnn(C)c1-c1ccn2nc(Nc3ccc4nccn4n3)cc2c1` [Example 149, N-[5-[2-methyl-4-[[(2R)-1-methylazetidin-2-yl]methoxy]pyrazol-3-yl]pyrazolo[1,5-a]pyridin-2-yl]imidazo[1,2-b]pyridazin-6-amine] belongs 2 nM.
To `Cc1cc(Nc2cc3cc(-c4c(OC[C@H]5CCN5CCF)cnn4C)ccn3n2)ncn1` [Example 277, 5-[4-[[(2R)-1-(2-fluoroethyl)azetidin-2-yl]methoxy]-2-methyl-pyrazol-3-yl]-N-(6-methylpyrimidin-4-yl)pyrazolo[1,5-a]pyridin-2-amine] belongs 1.4 nM.
As for `Cn1ncc(OC[C@@H]2CCNC2)c1-c1ccn2nc(NC(=O)C3CC3)cc2c1` [Example 229, N-[5-[2-methyl-4-[[(3R)-pyrrolidin-3-yl]methoxy]pyrazol-3-yl]pyrazolo[1,5-a]pyridin-2-yl]cyclopropanecarboxamide], the IC50 stood at 23.8 nM.
To `CCN1CC[C@@H]1COc1cnn(C)c1-c1ccn2nc(Nc3cnc(C(F)(F)F)cn3)cc2c1` [Example 160, 5-[4-[[(2R)-1-ethylazetidin-2-yl]methoxy]-2-methyl-pyrazol-3-yl]-N-[5-(trifluoromethyl)pyrazin-2-yl]pyrazolo[1,5-a]pyridin-2-amine] belongs 2.5 nM and 3.6 nM.
To `CN1CC[C@H](Oc2cnn(C(F)F)c2-c2ccn3nc(NC(=O)C4CC4)cc3c2)C1` [Example 470, N-[5-[2-(difluoromethyl)-4-[(3S)-1-methylpyrrolidin-3-yl]oxy-pyrazol-3-yl]pyrazolo[1,5-a]pyridin-2-yl]cyclopropanecarboxamide] belongs 143 nM.
To `CN1CC[C@@H]1COc1cnn(C)c1-c1ccn2nc(Nc3cc(C(F)(F)F)ncn3)cc2c1` [Example 123, 5-[2-methyl-4-[[(2R)-1-methylazetidin-2-yl]methoxy]pyrazol-3-yl]-N-[6-(trifluoromethyl)pyrimidin-4-yl]pyrazolo[1,5-a]pyridin-2-amine] belongs 8.4 nM; to `CN1C[C@H](COc2cnn(C)c2-c2ccn3nc(NC(=O)C4CC4)cc3c2)[C@@H](O)C1` [Example 424, N-[5-[4-[[(3R,4R)-4-hydroxy-1-methyl-pyrrolidin-3-yl]methoxy]-2-methyl-pyrazol-3-yl]pyrazolo[1,5-a]pyridin-2-yl]cyclopropanecarboxamide], 96.1 nM; to `Cc1ncc(Nc2cc3cc(-c4c(OC[C@H]5CCN5C)cnn4C)ccn3n2)nc1C` [Example 23, N-(5,6-Dimethylpyrazin-2-yl)-5-[2-methyl-4-[[(2R)-1-methylazetidin-2-yl]methoxy]pyrazol-3-yl]pyrazolo[1,5-a]pyridin-2-amine], 1.2 nM.
For `Cc1cc(Nc2cc3cc(-c4c(O[C@@H]5COC[C@@H]5C)cnn4C)ccn3n2)nc(C)n1` (single isomer, unassigned) [Example 445, (3*S,4*S)—N-(2,6-dimethylpyrimidin-4-yl)-5-[2-methyl-4-(4-methyltetrahydrofuran-3-yl)oxy-pyrazol-3-yl]pyrazolo[1,5-a]pyridin-2-amine], the IC50 is 78.9 nM.
`COc1nnc(Nc2cc3cc(-c4c(OC[C@H]5CCN5C)cnn4C)ccn3n2)cc1C` [Example 121, N-(6-methoxy-5-methyl-pyridazin-3-yl)-5-[2-methyl-4-[[(2R)-1-methylazetidin-2-yl]methoxy]pyrazol-3-yl]pyrazolo[1,5-a]pyridin-2-amine] showed an IC50 of 1 nM.
To `Cn1ncc(OC[C@@H](N)C(C)(C)O)c1-c1ccn2nc(NC(=O)C3CC3)cc2c1` [Example 426, N-[5-[4-[(2R)-2-amino-3-hydroxy-3-methyl-butoxy]-2-methyl-pyrazol-3-yl]pyrazolo[1,5-a]pyridin-2-yl]cyclopropanecarboxamide] belongs 71.6 nM; to `CN1CC[C@@H]1COc1cnn(C)c1-c1ccn2nc(Nc3cnc(C(C)(C)C)cn3)cc2c1` [Example 381, N-(5-tert-butylpyrazin-2-yl)-5-[2-methyl-4-[[(2R)-1-methylazetidin-2-yl]methoxy]pyrazol-3-yl]pyrazolo[1,5-a]pyridin-2-amine], 3.6 nM.
`Cn1ncc(OC[C@@H]2CNCCO2)c1-c1ccn2nc(NC(=O)C3CC3)cc2c1` [Example 230, N-[5-[2-methyl-4-[[(2S)-morpholin-2-yl]methoxy]pyrazol-3-yl]pyrazolo[1,5-a]pyridin-2-yl]cyclopropanecarboxamide] showed an IC50 of 41.8 nM.
With `CCN1CC[C@H]1COc1cnn(C)c1-c1ccn2nc(Nc3cc(C)nc(C(F)(F)F)n3)cc2c1` [Example 168, 5-[4-[[(2S)-1-ethylazetidin-2-yl]methoxy]-2-methyl-pyrazol-3-yl]-N-[6-methyl-2-(trifluoromethyl)pyrimidin-4-yl]pyrazolo[1,5-a]pyridin-2-amine], the IC50 was found to be 23 nM.
